{"source": "patent US11229712B2", "about": "“In vivo detection of a xenon-binding cage molecule” (Lakehead University, priority 2016, dated 2022)", "key": {"[1]": {"experiment": "In vivo HyperCEST 129Xe MR spectra of abdomen and brain after IV CB6", "parameters": "species or system Sprague-Dawley rat", "settings": "3 mL of 10 mM CB6 IV, pre-pulse +124.3 ppm", "description": "A 10 mM solution of the CB6 cage molecule dissolved in 1×PBS (pH 7.2) was prepared. 3 mL of the CB6 solution was injected into the tail vein catheter of a Sprague-Dawley rat and allowed to bio-distribute for 30 minutes. An endotracheal tube was surgically placed in the anaesthetized rat, and the rat was ventilated with 100% oxygen using a custom made ventilator. The rat was placed into a whole body custom made rat RF coil. Five seconds prior to xenon MR image acquisition, the rat was ventilated with a gas mixture of 80% xenon/20% oxygen. We acquired free induction decay (FID) magnetic resonance spectra (MRS) (FIGS. 5 & 6, A & D) from both the abdomen and head of the rat. […] We attribute this to a variety of susceptibility and line broadening effects occurring in vivo. […]\n(§1) A midline incision was made in the neck of the rat and the trachea localized. […] A Positive End Expiratory Pressure of 20 mBar was measured. […]\n30 minutes following injection of CB6, the ventilator was set to continuously dispense an 80% xenon/20% oxygen mixture to the rat. […] The signal to noise ratio (SNR) of each spectrum was calculated using MATLAB. The HyperCEST depletion at each chemical shift offset was calculated and plotted using Microsoft Excel."}, "[2]": {"experiment": "HyperCEST 129Xe MR imaging of syringes with CB6 blood solution and saturation map", "format": "physicochemical, bovine", "settings": "2.5 mM CB6 in blood, on-resonance pre-pulses at 124.3 ppm (FIG. 4)", "text": "We obtained MR images of two syringes within the same field of view: one filled with a CB6 blood solution, the other with only a blood solution and no CB6 molecules (FIG. 4). Signal from the plasma, gas phase, and RBC-bound xenon is present in the control image (FIG. 4A). We observed a gas phase chemical shift artifact, offset by 43 pixels of 67.1 mm. Additionally, we observed a stronger gas phase signal from the control solution (right syringe) than the CB6 syringe (left syringe). We attribute this phenomenon to the differences in the extent of blood foam formation between the two solutions. The control solution foamed more than the CB6 solution, which provided a reservoir of gaseous hyperpolarized xenon to exchange with the xenon dissolved in the plasma providing a stronger xenon-plasma signal. […] A saturation map was produced (FIG. 4C) by normalizing each image by Its own background noise and subtracting the off-resonance control image from the HyperCEST saturation image and normalizing pixel-by-pixel, the off-resonance image. […]\n^129Xe gas was polarized to 30% using a Xemed polarizer (Xemed, Durham, N.H.). […] The signal-noise ratio (SNR) of each spectrum was calculated using MATLAB (MathWorks, Natick Mass.). Signal depletion values due to the HyperCEST effect were measured by subtracting the HyperCEST saturation spectrum SNR from the control spectrum SNR and dividing by the control SNR."}, "[3]": {"settings": "from reference 14; cited from earlier work"}, "[4]": {"experiment": "HyperCEST depletion of CB6 in whole bovine blood (129Xe NMR spectra, 3T)", "format": "physicochemical", "description": "[…] of cucurbituril (CB6) was made by dissolving 50 mg of CB6 (Sigma-Aldrich, St. Louis, USA) in 10 mL of 1× phosphate buffered saline (PBS) at pH 7.2 at room temperature. The mixture was shaken gently. Ten mL of the CB6-PBS solution was mixed with 10 mL of fresh citrated bovine blood (Cederlane, Burlington Calif.) within a 30 mL syringe to create a 2.5 mM solution of CB6 in a blood solution. The control sample was prepared in an identical manner as the CB6 solution except CB6 was omitted. The control sample contained 10 mL of PBS and 10 mL of bovine blood.\nSerial dilutions of CB6 in blood were made by adding an appropriate amount of blood to the 2.5 mM stock solution.\n^129Xe gas was polarized to 30% using a Xemed polarizer (Xemed, Durham, N.H.). 7.5 mL of HP ^129Xe gas was introduced into the syringe over 5 s from the Tedlar bag in the pressure chamber which was pressurized at 3 psi above atmosphere. The solution and gas were mixed by agitating the syringe for approximately 12 s. Approximately 3 mL of ^129Xe dissolved in the blood/PBS solvent, the remaining undissolved ^129Xe was ejected from the syringe, yielding an effective ^129Xe concentration of 7.5 mM. The procedure was repeated for each spectral acquisition for the HyperCEST depletion spectrum. The 30 mL syringe containing the CB6-blood solution was placed inside a custom RF coil tuned to the Larmor frequency of 129Xe (35.33 MHz) at 3T. A Philips Achieva 3T clinical scanner was used to acquire all NMR spectra and MR images. A free induction decay (FID) was collected and the chemical shift of the ^129Xe/CB6 complex was noted. Ref B1 is a parameter of Philips MR scanners and is used to calculate the RF pulse length. The scanner uses the pulse length and flip angle to determine the amplitude of the RF pulse and field strength. For these experiments, the scanner set a B1 field strength of 1.18 μT. For the NMR spectra and images, a pulsed saturation pre-pulse train consisting of 16-6 ms 3-lobe sinc pulses with 3 ms pulse intervals was applied +124.3 ppm off resonance from the gas phase peak which corresponds to the chemical shift of the CB6-Xe complex. For initial HyperCEST depletion measurements, control spectra were collected with an off resonance saturation pre-pulse at 258 ppm. A HyperCEST depletion spectrum was collected by measuring HyperCEST depletion at various shift offsets from the CB6/Xe peak. A minimum of 3 spectra were collected at each chemical shift and the mean signal depletion was plotted as a function of the frequency of the chemical shift offset. The signal-noise ratio (SNR) of each spectrum was calculated using MATLAB (MathWorks, Natick Mass.). Signal depletion values due to the HyperCEST effect were measured by subtracting the HyperCEST saturation spectrum SNR from the control spectrum SNR and dividing by the control SNR."}, "[5]": {"experiment": "In vivo HyperCEST 129Xe MRI saturation maps showing location of CB6", "parameters": "species or system Sprague-Dawley rat", "settings": "rat", "text": "We then acquired ^1H turbo spin echo (TSE) MR images to correlate the xenon signal with its anatomical location. Immediately prior to ^129Xe image acquisition, the rat was ventilated with xenon as described above. The imaging sequence began with a saturation pre-pulse consisting of sixteen 20 ms 3-lobe sinc pulses with a 3 sec pulse interval applied at […] chemical shift frequencies. ^129Xe gradient echo (GE) images were acquired with both on-resonance and off-resonance saturation pre-pulses (FIGS. 6 & 7B & E). […] By applying the HyperCEST saturation pulses, we observed a reduction in signal in areas containing the CB6 molecules (FIGS. 6 & 7E).\nWe also created a HyperCEST saturation map in the brain of the rat (FIG. 8B).\nAll animal procedures were approved by the Lakehead University Animal Care Committee. Sprague-Dawley rats (n=6) (Charles River, Sherbrook QC) weighing between 300-400 g were anesthetized using 4 LPM of isoflurane until their corneal reflex became absent. […]\nas §1\n30 minutes following CB6 injection, the ventilator was set to dispense xenon to the rat. […] Images were collected and analyzed using MATLAB. […]"}}, "note": "“Also recorded” adds a separate entry of the source."}
{"smiles": "O=C1N2CN3C(=O)N4CN5C(=O)N6CN7C(=O)N8CN9C(=O)N%10CN%11C(=O)N%12CN1C1C2N2CN%13C(=O)N(CN%14C(=O)N(CN%15C(=O)N(CN%16C(=O)N(CN%17C(=O)N(CN1C2=O)C%12C%11%17)C%10C9%16)C8C7%15)C6C5%14)C4C3%13", "note": "(centres unmarked) [CB6, cucurbituril]", "values": [{"measurement": "Reduction in signal intensity compared to the off-resonance control spectrum", "setting": "[1]; rat abdomen, 30 minutes", "result": 86, "unit": "%"}, {"measurement": "Reduction in signal intensity of the MR signal", "setting": "[1]; rat brain", "result": 38, "unit": "%"}, {"measurement": "Depletion of dissolved phase xenon signal in MR image and saturation map", "setting": "[2]", "result": "almost complete depletion; also recorded: strong CB6 HyperCEST signal depletion"}, {"measurement": "Xe-CB6 exchange", "setting": "[3]", "result": 1470, "unit": "s⁻¹"}, {"measurement": "HyperCEST depletion as a function of CB6 concentration", "setting": "[4]; 250 μM CB6 in whole bovine blood (FIG. 3)", "result": 14, "unit": "%"}, {"measurement": "HyperCEST depletion in the dissolved phase xenon signal", "setting": "[4]; 2.5 mM CB6 in blood and PBS, saturation pre-pulse train at +124.3 ppm (FIG. 1)", "result": 84, "unit": "%"}, {"measurement": "HyperCEST depletion as a function of CB6 concentration", "setting": "[4]; 2.5 mM CB6 in whole bovine blood (FIG. 3)", "result": 80, "unit": "%"}, {"measurement": "HyperCEST signal depletion, local minimum of depletion spectrum", "setting": "[4]; CB6 in blood, pulsed at +124.3 ppm (FIG. 2)", "result": 74, "unit": "%"}, {"measurement": "Lowest CB6 concentration at which HyperCEST depletion was measurable", "setting": "[4]; serial dilutions of CB6 in blood", "result": 10, "unit": "µM"}, {"measurement": "Location of CB6 in HyperCEST saturation map", "setting": "[5]; 3 mL of 10 mM CB6 IV, imaging 30 minutes after injection", "result": "heart, lungs, aorta, kidneys, and bladder; also recorded: brain, heart, lungs, aorta, carotid arteries, and kidneys"}, {"measurement": "Excretion of CB6", "setting": "[5]; weak HyperCEST signal from the bladder", "result": "renal clearance into the bladder; also recorded: excreted by the kidneys"}]}
